Calls of active or inactive are those of the source. The rule behind the calls is not given here.

Results on eight molecules are retold here after PubChem BioAssay AID1259407 (Chemical Carcinogenesis Research Information System (CCRIS), 2018).

For this data set, the system named is CCRIS mutagenicity, Ames/micronucleus/aberration tests. The data set is described as follows: CCRIS mutagenicity studies.
The mark [1] stands for this setting: Test System: AMES SALMONELLA TYPHIMURIUM, Strain/Indicator: TA98, Metabolic Activation: NONE, Method: STANDARD PLATE.
The mark [2] stands for this setting: Test System: AMES SALMONELLA TYPHIMURIUM, Strain/Indicator: TA100, Metabolic Activation: NONE, Method: STANDARD PLATE.
The mark [3] stands for this setting: Test System: AMES SALMONELLA TYPHIMURIUM, Strain/Indicator: TA1535, Metabolic Activation: NONE, Method: STANDARD PLATE.
Where [4] appears, read: Test System: AMES SALMONELLA TYPHIMURIUM, Strain/Indicator: TA1538, Metabolic Activation: NONE, Method: STANDARD PLATE.
[5] abbreviates: Test System: AMES SALMONELLA TYPHIMURIUM, Strain/Indicator: TA97, Metabolic Activation: NONE, Method: STANDARD PLATE.
[6] abbreviates: Test System: AMES SALMONELLA TYPHIMURIUM, Strain/Indicator: TA98, Metabolic Activation: NONE, Method: PREINCUBATION
The mark [7] stands for this setting: Test System: AMES SALMONELLA TYPHIMURIUM, Strain/Indicator: TA98, Metabolic Activation: RAT, LIVER, S-9, AROCLOR 1254, Method: STANDARD PLATE.
The mark [8] stands for this setting: Test System: AMES SALMONELLA TYPHIMURIUM, Strain/Indicator: TA100, Metabolic Activation: RAT, LIVER, S-9, AROCLOR 1254, Method: STANDARD PLATE.
Setting [9] is: Test System: AMES SALMONELLA TYPHIMURIUM, Strain/Indicator: TA1537, Metabolic Activation: NONE, Method: STANDARD PLATE.

As to `COc1ccc2nc3cc(Cl)ccc3c(NCCCNCCCl)c2c1`, the mutagenic call (Test System: AMES SALMONELLA TYPHIMURIUM, Strain/Indicator: TA97A, Metabolic Activation: NONE, Method: STANDARD PLATE) is “active; positive”; the mutagenic call under setting [1] is “active; positive”; the mutagenic call under setting [2] was “active; positive”; the mutagenic call under setting [3] is “inactive; negative”; the mutagenic call (Test System: AMES SALMONELLA TYPHIMURIUM, Strain/Indicator: TA1536, Metabolic Activation: NONE, Method: STANDARD PLATE) was “active; positive”; the mutagenic call under setting [4] was “active; positive”. Further, the mutagenic call by setting is: (Test System: CHINESE HAMSTER V-79, Strain/Indicator: V-79/6-THIOGUANINE, Metabolic Activation: NONE, Method: FLASK ASSAY) “active; positive”; (Test System: CHO/HGPRT, Strain/Indicator: CHO-K1-BH4, Metabolic Activation: NONE, Method: STANDARD PLATE) “active; positive”; (Test System: UDS RODENT CELLS, Strain/Indicator: THY INCORP (NON-S-PHASE), Metabolic Activation: NONE, Method: LIQUID SCINTILLATION COUNTING) “active; positive”.
With `Cc1ccc2c(ccc3ccccc32)c1`, the mutagenic call is “inactive; negative” under setting [5]; “active; positive” (Test System: AMES SALMONELLA TYPHIMURIUM, Strain/Indicator: TA97, Metabolic Activation: RAT, LIVER, S-9, PCB, Method: STANDARD PLATE); “inactive; negative” under setting [1]; “active; positive” (Test System: AMES SALMONELLA TYPHIMURIUM, Strain/Indicator: TA98, Metabolic Activation: RAT, LIVER, S-9, PCB, Method: STANDARD PLATE); “inactive; negative” under setting [2]; “active; positive” (Test System: AMES SALMONELLA TYPHIMURIUM, Strain/Indicator: TA100, Metabolic Activation: RAT, LIVER, S-9, PCB, Method: STANDARD PLATE).
For `CC(=O)N(O)c1ccc(/C=C/c2ccccc2)cc1`, the mutagenic call by setting is: under setting [6], “inactive; negative”; (Test System: AMES SALMONELLA TYPHIMURIUM, Strain/Indicator: TA98, Metabolic Activation: RAT, LIVER, CYTOSOL, Method: PREINCUBATION) “active; positive”; (Test System: AMES SALMONELLA TYPHIMURIUM, Strain/Indicator: TA98, Metabolic Activation: RAT, LIVER, MICROSOMES, Method: PREINCUBATION) “active; positive”; (Test System: CHINESE HAMSTER V-79, Strain/Indicator: V-79/6-THIOGUANINE, Metabolic Activation: NONE, Method: STANDARD PLATE) “active; positive”.
For `CO/N=C(\C(=O)N[C@@H]1C(=O)N2C(C(=O)OCOC(=O)C(C)(C)C)=C(/C=C\c3scnc3C)CS[C@H]12)c1csc(N)n1`, the mutagenic call is, setting by setting: under setting [6], “inactive; negative”; (Test System: AMES SALMONELLA TYPHIMURIUM, Strain/Indicator: TA98, Metabolic Activation: RAT, LIVER, S-9, PHENOBARBITAL AND 5,6-BENZOFLAVONE, Method: PREINCUBATION) “inactive; negative”; (Test System: AMES SALMONELLA TYPHIMURIUM, Strain/Indicator: TA100, Metabolic Activation: NONE, Method: PREINCUBATION) “inactive; negative”; (Test System: AMES SALMONELLA TYPHIMURIUM, Strain/Indicator: TA100, Metabolic Activation: RAT, LIVER, S-9, PHENOBARBITAL AND 5,6-BENZOFLAVONE, Method: PREINCUBATION) “inactive; negative”; (Test System: AMES SALMONELLA TYPHIMURIUM, Strain/Indicator: TA1535, Metabolic Activation: NONE, Method: PREINCUBATION) “inactive; negative”; (Test System: AMES SALMONELLA TYPHIMURIUM, Strain/Indicator: TA1535, Metabolic Activation: RAT, LIVER, S-9, PHENOBARBITAL AND 5,6-BENZOFLAVONE, Method: PREINCUBATION) “inactive; negative”. Besides, the mutagenic call was “inactive; negative” (Test System: AMES SALMONELLA TYPHIMURIUM, Strain/Indicator: TA1537, Metabolic Activation: NONE, Method: PREINCUBATION); “inactive; negative” (Test System: AMES SALMONELLA TYPHIMURIUM, Strain/Indicator: TA1537, Metabolic Activation: RAT, LIVER, S-9, PHENOBARBITAL AND 5,6-BENZOFLAVONE, Method: PREINCUBATION); “inactive; negative” (Test System: AMES SALMONELLA TYPHIMURIUM, Strain/Indicator: TA1538, Metabolic Activation: NONE, Method: PREINCUBATION); “inactive; negative” (Test System: AMES SALMONELLA TYPHIMURIUM, Strain/Indicator: TA1538, Metabolic Activation: RAT, LIVER, S-9, PHENOBARBITAL AND 5,6-BENZOFLAVONE, Method: PREINCUBATION); “inactive; negative” (Test System: E. COLI, Strain/Indicator: WP2 UVRA, Metabolic Activation: NONE, Method: PREINCUBATION); “inactive; negative” (Test System: E. COLI, Strain/Indicator: WP2 UVRA, Metabolic Activation: RAT, LIVER, S-9, PHENOBARBITAL AND 5,6-BENZOFLAVONE, Method: PREINCUBATION). For the same molecule, the mutagenic call (Test System: MOUSE LYMPHOMA, Strain/Indicator: L5178Y (TK+/TK-), Metabolic Activation: NONE) is “inactive; negative”; the mutagenic call (Test System: MOUSE LYMPHOMA, Strain/Indicator: L5178Y (TK+/TK-), Metabolic Activation: RAT, LIVER, S-9, PHENOBARBITAL AND 5,6-BENZOFLAVONE) was “inactive; negative”; the mutagenic call (Test System: UDS RAT STOMACH MUCOSA CELLS, Strain/Indicator: THY INCORP, Metabolic Activation: NONE, Method: IN VIVO-IN VITRO) was “inactive; negative”.
On to `Cc1cnc2cc3nc(N)n(C)c3c(C)c2n1`, for which the mutagenic call (Test System: AMES SALMONELLA TYPHIMURIUM, Strain/Indicator: TA98, Metabolic Activation: RAT, LIVER, S-9, PCB, Method: PREINCUBATION) was “active; positive”; the mutagenic call (Test System: AMES SALMONELLA TYPHIMURIUM, Strain/Indicator: TA98, Metabolic Activation: S-9) is “active; positive”; the mutagenic call (Test System: AMES SALMONELLA TYPHIMURIUM, Strain/Indicator: TA98, Metabolic Activation: S-9, Method: PREINCUBATION) was “active; positive”; the mutagenic call (Test System: AMES SALMONELLA TYPHIMURIUM, Strain/Indicator: YG1024, Metabolic Activation: RAT, LIVER, S-9, PCB, Method: PREINCUBATION) is “active; positive”; the mutagenic call (Test System: AMES SALMONELLA TYPHIMURIUM, Strain/Indicator: YG1024, Metabolic Activation: S-9) was “active; positive”.
For the molecule `O=C(c1ccccc1)C1OC1c1ccccc1` (stereo unspecified), the mutagenic call is “inactive; negative” under setting [1], “inactive; negative” under setting [7], “active; positive” under setting [2] and “active; positive” under setting [8].
Regarding `COc1cc(NS(C)(=O)=O)ccc1Nc1c2ccccc2nc2cc(N=[N+]=[N-])ccc12`, the mutagenic call under setting [9] was “active; positive”.
As to `COC/C(=C/c1ccccc1)OC`, the mutagenic call is, setting by setting: under setting [5], “inactive; negative”; (Test System: AMES SALMONELLA TYPHIMURIUM, Strain/Indicator: TA97, Metabolic Activation: RAT, LIVER, S-9, AROCLOR 1254, Method: STANDARD PLATE) “inactive; negative”; under setting [1], “inactive; negative”; under setting [7], “inactive; negative”; under setting [2], “inactive; negative”; under setting [8], “inactive; negative”. Also, the mutagenic call by setting is: under setting [3], “inactive; negative”; (Test System: AMES SALMONELLA TYPHIMURIUM, Strain/Indicator: TA1535, Metabolic Activation: RAT, LIVER, S-9, AROCLOR 1254, Method: STANDARD PLATE) “inactive; negative”; under setting [9], “active; positive”; (Test System: AMES SALMONELLA TYPHIMURIUM, Strain/Indicator: TA1537, Metabolic Activation: RAT, LIVER, S-9, AROCLOR 1254, Method: STANDARD PLATE) “inactive; negative”; under setting [4], “inactive; negative”; (Test System: AMES SALMONELLA TYPHIMURIUM, Strain/Indicator: TA1538, Metabolic Activation: RAT, LIVER, S-9, AROCLOR 1254, Method: STANDARD PLATE) “inactive; negative”.
